Measurements published in patent US20240226211A9, “SEAWEED EXTRACTS, ISOLATED COMPOUNDS, AND METHODS OF TREATMENT” (University of Florida Research Foundation, Incorporated, priority 2017, published 2024).

How the values were obtained:
[1] = system: ARE-luciferase reporter (human NQO1-ARE) in LNCaP cells; assay: ARE-luc reporter assay in LNCaP cells; format: cell-based; settings: LNCaP cell line
From the text: The ARE-luciferase reporter construct (ARE-luc) contains the core sequence of human NQO1-ARE1. The mock plasmid (pcDNA3-mRFP) was purchased from Addgene (plasmid 13032). The following plasmids were reported by Zhang et a/.2003 [Zhang, D. D., and Hannink, M. (2003) Distinct cysteine residues in Keap1 are required for Keap1-dependent ubiquitination of Nrf2 and for stabilization of Nrf2 by chemopreventive agents and oxidative stress. Mol. Cell. Biol. 23, 8137-8151]. The Keap1-CBD plasmid carries the entire open reading frame (ORF) of human Keap1 fused to the chitin binding domain (CBD) of the Bacillus circulans chitinase A1 gene upstream of the Keap1 stop codon. […]
(§1) An ARE-luciferase reporter plasmid and CMV-GFP plasmid (to monitor transfection efficiency) were co-transfected into a human androgen-sensitive prostate cancer cell line, LNCaP (6×10^4 cells/well), and a human neuroblastoma cell line, IMR-32 (3×10^4 cells/well), using Fugene® HD (Roche Diagnostics) in 96-well format. […] After 24 hours of incubation, cells were treated with extracts from Cymopolia barbata, a negative control (DMSO, 1%, v/v), and a positive control ([…] sulforaphane, SF, and tert-butylhydroquinone, tBHQ, respectively.) 24 hours post-treatment, luciferase activity was detected using BriteLite detection reagent (PerkinElmer). […]

[2] = system: ARE-luciferase reporter (human NQO1-ARE) in IMR-32 cells; assay: ARE-luc reporter assay in IMR-32 cells; format: cell-based; settings: IMR-32 cell line
From the text: The ARE-luciferase reporter construct (ARE-luc) contains the core sequence of human NQO1-ARE1. The mock plasmid (pcDNA3-mRFP) was purchased from Addgene (plasmid 13032). The following plasmids were reported by Zhang et a/.2003 [Zhang, D. D., and Hannink, M. (2003) Distinct cysteine residues in Keap1 are required for Keap1-dependent ubiquitination of Nrf2 and for stabilization of Nrf2 by chemopreventive agents and oxidative stress. Mol. Cell. Biol. 23, 8137-8151]. The Keap1-CBD plasmid carries the entire open reading frame (ORF) of human Keap1 fused to the chitin binding domain (CBD) of the Bacillus circulans chitinase A1 gene upstream of the Keap1 stop codon. Oligonucleotide-directed mutagenesis was used to generate the Keap1-C151S-CBD and Keap1-C288S-CBD plasmids. The HA-Cul3 plasmid was constructed by fusing an N-terminal hemagglutinin (HA) tag with a cDNA sequence coding for amino acids 1-380 of human Cul3 gene. The Gal4-Neh2 expression vector contains the codons for the first 97 amino acids (Neh2 domain) of human Nrf2 fused to the ORF of the Gal4 DNA-binding domain
as §1, with “format. […] J Biol Chem. 2002; 277:388-394; Lee J M, Hanson J M, Chu W A, Johnson J A. Phosphatidylinositol 3-kinase, not extracellular signal-regulated kinase, regulates activation of the antioxidant-responsive element in IMR-32 human neuroblastoma cells.” for “format.”

Nrf2 = assay: Nuclear translocation of NRF2 in IMR-32 cells; format: cell-based, human
Protocol: IMR-32 cells were seeded in 6-well format at 2×10^6 cells/well and incubated at 37° C. overnight. The cells were treated with a solvent control (DMSO, 1%, v/v) or serial dilutions of isolated compounds or extracts for the indicated periods of time. The cytosolic and nuclear extracts were separated and prepared using a commercial kit, NE-PER Nuclear and Cytoplasmic Extraction Reagents (Thermo Scientific). Briefly, cells were gently washed once with 200 μL at DPBS before being resuspended in 1 mL DPBS, transferred to a pre-chilled tube, and pelleted at 500×g for 3 min at 4° C. The supernatant was removed and cells were resuspended in ice-cold CER I containing 1% cOmplete, EDTA-free Protease Inhibitor Cocktail (v/v, Roche Diagnostics) by vigorous vortexing. After addition of ice-cold buffer CER II, the samples were vortexed vigorously for 5 s and incubated on ice for 1 min twice before being pelleted at 16,000×g for 5 min at 4° C. The supernatant was transferred to a fresh tube and used as cytosolic stock. The pellet was washed twice by adding 75 μL ice-cold DPBS, flicking, centrifuging, and removing the supernatant before resuspension in ice-cold buffer NER supplemented with 1% cOmplete, EDTA-free Protease Inhibitor Cocktail (v/v). […] Subsequently, the cellular and nuclear extracts were analyzed by immunoblot.

Cox2 = Cox2 transcript levels in RAW264.7 macrophage cells; format: cell-based, mouse; settings: 10 μM Compound 1, IFN-γ
Protocol: (§2) The RNeasy Mini Kit (Qiagen) was used to collect total RNA from cells, while for mouse tissue, TRIzol reagent (Invitrogen) was used. In each case, total RNAs (2 μg) were reverse-transcribed into cDNAs, which were used as templates for TaqMan gene expression assay (Applied Biosystems) and detected using the 7300 Real-Time PCR System (Applied Biosystems). Each qPCR sample was tested in triplicate as a 25 μL total reaction volume (12.5 μL of Taqman 2× universal master mix, 1.25 μL of a 20× TaqMan gene expression assay probe, 1 μL of the above cDNA, and 10.25 μL of RNase-free sterile water). The qPCR method was designed as following: 50° C. for 2 min, 95° C. for 10 min, and 40 cycles of 95° C. for 15 s and 60° C. for 1 min. Endogenous controls used included GAPDH for IMR-32 cells and β-actin to normalize for RAW264.7 cells and mouse tissues.
RAW264.7 cells were seeded in 6-well plates (8×10^5 cells/well) and incubated at 37° C. overnight.

[3] = system: nitric oxide (NO) production in RAW264.7 cells; assay: NO assay in RAW264.7 cells; format: cell-based, mouse; settings: 10 μM Compound 1, IFN-γ
Protocol: RAW264.7 cells (2×10^4 cells/well), wild-type (8×10^3 cells/well), Nrf2−/−(7×10^3 cells/well), and Keap1−/−(5×10^3 cells/well) MEF were seeded into 96-well format. Cells were pretreated for 1 h with a solvent control (DMSO, 1%, v/v) or serial dilutions of isolated compounds or extracts before addition of LPS (1 μg/mL) or IFN-γ (10 ng/mL). […] In each case, 50 μL of the media was combined with 50 μL Griess Reagent (Promega). Absorbance was measured at 540 nm and compared with a calibration curve generated using the provided […] standard.

[4] = system: ARE-driven and NFκB driven genes; assay: Gene transcription in wildtype zebrafish embryos; format: in vivo
Nqo1 = Nqo1 transcript levels in mouse organs after oral gavage; format: in vivo; settings: mice, particularly digestive tract
Protocol: as §2
The experiments were approved by the Institutional Animal Care & Use Committee at the University of Florida. Groups of 5-10 wild type male mice (C57BL/6J) were used for each treatment type. The mice were maintained under approved standard conditions. […] The tissues were harvested immediately, frozen on dry ice, and kept at −80° C. until analyzed.
A low dose and a high dose of cymopol (1) or the NP extract were administered to 4-week-old male mice via oral gavage.

Bacillus cereus = assay: Preliminary antibacterial testing; format: cell-based

## CC(C)=CCC/C(C)=C/Cc1cc(O)c(Br)cc1O [Compound 1, (E)-2-bromo-5-(3,7-dimethylocta-2,6-dien-1-yl)benzene-1,4-diol]
[1]
  activation of ARE-luc: most active
[2]
  activation of ARE-luc: most active
Nrf2; IMR-32 cells
  time after which increased nuclear NRF2 levels were seen: 18 h
Nrf2; IMR-32 cells, 0, 1, 6 or 18 hours
  nuclear translocation of NRF2: induced nuclear translocation of NRF2
Cox2
  reduction of Cox2 transcript levels: 90%
[3]
  reduction in levels of NO: > 96%
[4]
  ARE-driven gene transcription: increase in ARE-driven gene transcription
  select NFκB driven genes: decrease in select NFκB driven genes
Nqo1
  transcript levels of Nqo1 in various organs: elevated transcript levels of Nqo1
Bacillus cereus
  antibacterial activity: inhibited
